Experiment: xn = mol fraction of the nth substance listed, in the solute-free solvent

c1ccc2c(c1)CCc1ccccc1N2 + CS(C)=O + O
solubility (g/100 g solution)
Settings	x2 = 0.02506	x2 = 0.0546	x2 = 0.08995	x2 = 0.1286	x2 = 0.1882	x2 = 0.2567	x2 = 0.3485	x2 = 0.4779	x2 = 0.665
293.15 K	0.237	2.56	6.27	6.04	5.43	5.01	4.74	5.59	6.04
298.15 K	0.323	3.31	7.85	7.49	6.85	6.32	5.77	6.8	7.23
303.15 K	0.412	4.04	9.35	8.95	8.16	7.51	6.86	8.1	8.7
308.15 K	0.544	5.06	11.4	10.8	9.87	8.98	8.2	9.64	10.2
313.15 K	0.69	6.11	13.3	12.7	11.6	10.5	9.62	11.2	11.7
318.15 K	0.878	7.39	15.7	14.9	13.7	12.4	11.2	12.8	13.4
323.15 K	1.11	8.88	18.2	17.2	15.8	14.3	13	14.6	15.1
328.15 K	1.39	10.5	21	19.9	18.1	16.5	14.9	16.5	17.1

O=C1C=CC(=O)N1c1ccccc1Br + CN1CCCC1=O + O
solubility (g/100 g solution)
Settings	278.15 K	283.15 K	288.15 K	293.15 K	298.15 K	303.15 K	308.15 K	313.15 K	318.15 K	323.15 K
x2 = 0.0198	0.759	0.975	1.23	1.5	1.9	2.31	2.81	3.43	4.09	4.91
x2 = 0.04347	2.17	2.74	3.4	4.11	5.08	6.17	7.35	8.81	10.3	12.2
x2 = 0.07228	4.95	6.03	7.43	8.92	10.6	12.4	14.7	17.2	19.7	22.4
x2 = 0.1081	8.04	9.64	11.7	13.7	16.3	18.8	21.8	24.8	28	31.5
x2 = 0.1538	12.4	14.7	17.1	20	22.9	26.2	29.7	33.3	36.9	40.5
x2 = 0.2143	16.7	19.8	22.4	25.9	29.3	33.2	37	40.7	44.8	48.7
x2 = 0.2979	21.5	24.7	28.1	31.6	35.2	39.1	43.5	47.2	51.2	55.1
x2 = 0.421	24.7	28.2	31.9	35.7	40	44.2	48.6	52.7	56.9	60.9
x2 = 0.6207	26.4	29.9	34.1	38.1	42	46.6	50.6	55.1	59.5	63.9

CC1=NNC(=O)N(N=Cc2cccnc2)C1 + C1COCCO1 + CC(C)O
solubility (g/100 g solution)
Settings	288.15 K	293.15 K	298.15 K	303.15 K	308.15 K	313.15 K	318.15 K
x2 = 0.1457	0.106	0.125	0.147	0.169	0.197	0.227	0.261
x2 = 0.3126	0.11	0.127	0.149	0.173	0.2	0.229	0.263
x2 = 0.5057	0.113	0.132	0.154	0.176	0.202	0.233	0.268
x2 = 0.7318	0.116	0.135	0.156	0.179	0.206	0.235	0.27

CC(C)C(=O)Nc1ccc([N+](=O)[O-])c(C(F)(F)F)c1 + CC#N + O
solubility (g/100 g solution)
Settings	278.15 K	283.15 K	288.15 K	293.15 K	298.15 K	303.15 K	308.15 K	313.15 K	318.15 K	323.15 K
x2 = 0.04651	0.0051	0.007	0.00931	0.0126	0.0169	0.0223	0.0298	0.0389	0.0503	0.0645
x2 = 0.0989	0.0498	0.0667	0.0861	0.112	0.148	0.193	0.248	0.313	0.402	0.508
x2 = 0.1583	0.303	0.387	0.487	0.609	0.767	0.951	1.17	1.44	1.74	2.11
x2 = 0.2264	1.08	1.36	1.68	2.08	2.57	3.16	3.86	4.68	5.62	6.78
x2 = 0.3051	3.19	3.94	4.76	5.74	6.94	8.26	9.78	11.5	13.6	15.8
x2 = 0.397	6.71	8.14	9.68	11.6	13.8	16.2	19.1	22.2	25.3	28.7
x2 = 0.506	12.4	14.9	17.7	20.4	23.6	27.3	31.1	35.1	39.3	43.6
x2 = 0.6372	18.2	21.8	25.4	29.4	33.6	38	42.9	47.8	52.8	57.8
x2 = 0.798	24.1	28.7	33.3	38	43.2	48.7	54	59.6	64.5	69.8

From the CheMixHub drug solubility set
